Here are results for 2 compounds from ChEMBL document CHEMBL1671707, “Mycobacterium tuberculosis dihydrofolate reductase is not a target relevant to the antitubercular activity of isoniazid” (Antimicrob Agents Chemother, 2010).

Experiment [1] concerns Mycolicibacterium smegmatis. Description: Antimicrobial activity against Mycobacterium smegmatis MC2 4517 by broth microdilution method. Type of experiment: functional. A general note: Broth dilution looks for growth in wells or tubes with falling amounts of substance.
Experiment [2] deals with Mycolicibacterium smegmatis. Description: Antimicrobial activity against Mycobacterium smegmatis MC2 5071 overexpressing InhA gene assessed as growth inhibition at 150 ug/ml. It is filed as functional, organism-based.
For experiment [3], the system named is Mycolicibacterium smegmatis. Description: Antimicrobial activity against Mycobacterium smegmatis MC2 5069 assessed as growth inhibition at 150 ug/ml. Type of experiment: functional, organism-based.
The subject of a further experiment is Escherichia coli. Description: Antimicrobial activity against Escherichia coli expressing katG and dfrA gene. Type of experiment: functional, organism-based.
For experiment [4], the system named is Mycobacterium tuberculosis. In words: Antimicrobial activity against wild-type Mycobacterium tuberculosis H37Rv by MTT assay. It is filed as functional. (Tetrazolium assays rely on reduction of a dye to a coloured formazan, in cell work by metabolically active cells.)
In experiment [5] the test system is Mycolicibacterium smegmatis. Description: Antimicrobial activity against Mycobacterium smegmatis MC2 5072 overexpressing dhfr gene assessed as growth inhibition at 10 ug/ml. Type of experiment: functional, organism-based.
The subject of experiment [6] is Mycolicibacterium smegmatis. In words: Antimicrobial activity against Mycobacterium smegmatis MC2 5071 overexpressing InhA gene assessed as growth inhibition at 10 ug/ml. Type of experiment: functional, organism-based.
Experiment [7] relates to Mycolicibacterium smegmatis. Description: Antimicrobial activity against Mycobacterium smegmatis MC2 5071 overexpressing InhA gene assessed as growth inhibition at 120 ug/ml. Type of experiment: functional, organism-based.
In experiment [8] the test system is Mycolicibacterium smegmatis. In words: Ratio of MIC for Mycobacterium smegmatis overexpressing dfrA gene to MIC for wild-type Mycobacterium smegmatis. It is filed as functional.
Experiment [9] concerns Mycolicibacterium smegmatis. Description: Antimicrobial activity against Mycobacterium smegmatis MC2 5069 assessed as growth inhibition at 50 ug/ml. It is filed as functional, organism-based.
The subject of experiment [10] is Mycolicibacterium smegmatis. In words: Antimicrobial activity against Mycobacterium smegmatis MC2 5071 overexpressing InhA gene assessed as growth inhibition at 50 ug/ml. Type of experiment: functional, organism-based.
The target of a further experiment is T1, Dihydrofolate reductase (Mycobacterium tuberculosis, UniProt P9WNX1).
T1 sequence (P9WNX1 whole entry): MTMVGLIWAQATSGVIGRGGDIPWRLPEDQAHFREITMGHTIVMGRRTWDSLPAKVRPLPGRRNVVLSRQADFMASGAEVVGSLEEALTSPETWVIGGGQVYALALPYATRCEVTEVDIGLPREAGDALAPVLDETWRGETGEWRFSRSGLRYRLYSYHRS
Description: Inhibition of Mycobacterium tuberculosis dihydrofolate reductase.

In experiment [11] the test system is Mycolicibacterium smegmatis. In words: Antimicrobial activity against Mycobacterium smegmatis MC2 5072 overexpressing dhfr gene assessed as growth inhibition at 120 ug/ml. It is filed as functional, organism-based.

Converted amounts (≈) assume the structure as drawn. The source made the active and inactive calls. No cut-off for these calls is given here.

`CCc1cc(C(N)=S)ccn1` [ETHIONAMIDE]: in experiment [1], the MIC came to 9.4 µg/mL (≈ 56.5 µM).
Take `NNC(=O)c1ccncc1` [ISONIAZID]: the result in [2], in experiment [3], in experiment [5], in experiment [9], in experiment [10] and in experiment [11] was Active. The outcome (in the experiment on Escherichia coli; in experiment [6]; in experiment [7]) was inactive. Moreover, the MIC turned out to be 0.06 µg/mL (≈ 0.438 µM) in [4] and 4.7 µg/mL (≈ 34.3 µM) in experiment [1]. In addition, the Ratio in experiment [8] worked out at 2. This compound also yielded an inhibition constant (Ki) on Dihydrofolate reductase of 1 nM.

As a reminder, the MIC is the lowest concentration that inhibits growth of the organism. A lower MIC goes with greater potency. A word on the Ki: it is the equilibrium dissociation constant of an inhibitor or competing ligand from its target. A high value points to lower affinity.
